The series in a line: Pharmacokinetic properties in HT29 tumour-bearing mice (HPLC of plasma and tissues; tolerability of injection). In kind it is in vivo, athymic NMRI nu/nu mice. The conditions noted are these: lateral tail vein injection, 50 μL. The protocol:
HT 29 human colorectal carcinoma cells are used. Six to eight weeks old adult female athymic NMRI nu/nu mice (Taconic M&B, Denmark) weighting 22-24 g were inoculated subcutaneously in the left hind thigh with 0.1 ml of 8×10^7 HT29 human colorectal carcinoma cells/ml in 5% glucose. Two to three weeks later, as the tumor reached a surface diameter of 7-8 mm, and a thickness of 2-3 mm in height, 50 μL of Temoporfin (0.2 mg/kg) diluted in ethanol or 50 μL pegylated liposomal formulation of mTHPC (0.04 mg/ml) were injected into lateral tail vein. Following the drug injection animals were held under normal animal house lighting conditions (average illumination of 200 Lux, maximum 600 Lux of fluorescent tube light, with no exposure to sunlight or daylight). No photo-reaction was observed during this period. […] The fluorescence wave length was set at 410 nm for excitation and 653 nm for emission. The tissue concentration of mTHPC was calculated from a calibration curve constructed by plotting the peak height values of mTHPC standard solutions versus their concentrations.

With `Oc1cccc(-c2c3nc(c(-c4cccc(O)c4)c4ccc([nH]4)c(-c4cccc(O)c4)c4nc(c(-c5cccc(O)c5)c5ccc2[nH]5)CC4)C=C3)c1` [Temoporfin], the “Adverse effects during or immediately after injection” value is “No adverse effects”.

These data come from patent US8986731B2, “Pegylated liposomal formulations of hydrophobic photosensitizers for photodynamic therapy” (Biolitec Pharma Marketing Ltd, priority 2003, dated 2015).
